From ChEMBL document CHEMBL1141701, “N-alkyl-5H-pyrido[4,3-b]indol-1-amines and derivatives as novel urotensin-II receptor antagonists” (Bioorg Med Chem Lett, 2008)
Converted amounts (≈) assume the structure as drawn. Values belong to the molecule of their own block, whether it stands above or below them.

Assays:
Urotensin-2 receptor [1] = target: T1, Urotensin-2 receptor (Homo sapiens, UniProt Q9UKP6); assay: Displacement of [125I]human urotensin 2 from human recombinant urotensin 2 receptor expressed in HEK293 cells; format: cell-based
T1 sequence (Q9UKP6 whole entry): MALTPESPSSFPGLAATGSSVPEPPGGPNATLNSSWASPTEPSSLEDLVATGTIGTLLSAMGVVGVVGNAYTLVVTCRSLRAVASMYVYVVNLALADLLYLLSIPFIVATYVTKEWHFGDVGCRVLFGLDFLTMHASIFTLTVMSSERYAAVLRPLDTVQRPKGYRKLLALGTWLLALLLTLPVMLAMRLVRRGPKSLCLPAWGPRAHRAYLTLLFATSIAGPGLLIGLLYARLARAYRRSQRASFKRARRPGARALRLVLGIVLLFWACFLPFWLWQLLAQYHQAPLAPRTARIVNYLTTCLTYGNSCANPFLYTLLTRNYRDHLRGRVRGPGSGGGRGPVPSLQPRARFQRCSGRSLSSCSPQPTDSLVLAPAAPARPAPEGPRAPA

Urotensin II receptor = target: T2, Urotensin II receptor (Felis catus, UniProt Q533H1); assay: Displacement of [125I]human urotensin 2 from cat urotensin 2 receptor expressed in HEK293 cells; format: cell-based
T2 sequence (Q533H1 whole entry): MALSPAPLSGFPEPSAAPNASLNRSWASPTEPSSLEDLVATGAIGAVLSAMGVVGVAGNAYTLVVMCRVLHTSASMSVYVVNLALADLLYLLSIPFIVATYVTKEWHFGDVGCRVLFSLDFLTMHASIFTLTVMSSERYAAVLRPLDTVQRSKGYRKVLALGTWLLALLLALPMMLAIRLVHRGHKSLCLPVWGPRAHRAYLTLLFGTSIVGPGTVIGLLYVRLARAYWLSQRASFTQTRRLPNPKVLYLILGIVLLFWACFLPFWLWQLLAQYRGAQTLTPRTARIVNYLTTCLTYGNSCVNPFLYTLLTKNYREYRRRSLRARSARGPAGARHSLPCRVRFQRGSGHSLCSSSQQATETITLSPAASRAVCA

Urotensin-2 receptor [2] = target: T1, Urotensin-2 receptor; assay: Antagonist activity at human urotensin 2 receptor by FLIPR assay; format: functional; conditions: read-out: pA2 (converted)
[3] = Selectivity for human urotensin 2 receptor over 5HT3 receptor
[4] = Selectivity for human urotensin 2 receptor over 5HT4A receptor
[5] = Selectivity for human urotensin 2 receptor over 5HT1D receptor
Cytochrome P450 2D6 = Cytochrome P450 2D6 (Homo sapiens, UniProt P10635); assay: Inhibition of CYP2D6; format: ADME
[6] = Blood clearance in rat at 0.49 mg/kg, iv or 0.97 mg/kg, po; format: ADME, organism-based
[7] = Selectivity for human urotensin 2 receptor over adenosine A2b receptor
[8] = target: Voltage-gated inwardly rectifying potassium channel KCNH2 (Homo sapiens, UniProt Q12809); assay: Inhibition of human ERG
[9] = Selectivity for human urotensin 2 receptor over muscarinic M1 receptor
[10] = Selectivity for human urotensin 2 receptor over CXCR2
[11] = Permeability across artificial phospholipid membrane by HPLC; format: ADME; conditions: not told; read-out: permeability
[12] = Selectivity for human urotensin 2 receptor over 5HT1A receptor
Homo sapiens = organism: Homo sapiens; assay: Selectivity for human urotensin 2 receptor over human ERG
[13] = Selectivity for human urotensin 2 receptor over adrenergic alpha1A receptor
[14] = Selectivity for human urotensin 2 receptor over histamine H1 receptor
[15] = Selectivity for human urotensin 2 receptor over 5HT6 receptor
Urotensin-2 receptor [16] = target: T1, Urotensin-2 receptor; assay: Antagonist activity at human recombinant urotensin 2 receptor expressed in HEK293 cells assessed as inhibition of […] calcium mobilization by FLIPR assay; format: functional, cell-based
[17] = Aqueous solubility in phosphate buffer by HPLC; format: physicochemical
[18] = Selectivity for human urotensin 2 receptor over 5HT2A receptor
[19] = Selectivity for human urotensin 2 receptor over adrenergic beta2 receptor
[20] = Selectivity for human urotensin 2 receptor over dopamine D2 receptor
[21] = Selectivity for human urotensin 2 receptor over muscarinic M5 receptor
[22] = Selectivity for human urotensin 2 receptor over 5HT2C receptor
[23] = Selectivity for human urotensin 2 receptor over histamine H3 receptor
[24] = Selectivity for human urotensin 2 receptor over dopamine D3 receptor
[25] = Selectivity for human urotensin 2 receptor over adenosine A1 receptor
[26] = Selectivity for human urotensin 2 receptor over muscarinic M2 receptor
[27] = Selectivity for human urotensin 2 receptor over adrenergic Alpha-1B receptor
[28] = Half life in rat at 0.49 mg/kg, iv or 0.97 mg/kg, po; format: ADME, organism-based; conditions: in vivo
[29] = Selectivity for human urotensin 2 receptor over muscarinic M4 receptor
[30] = Selectivity for human urotensin 2 receptor over adenosine A2a receptor
Cytochrome P450 3A4 = Cytochrome P450 3A4 (Homo sapiens, UniProt P08684); assay: Inhibition of CYP3A4; format: ADME
[31] = Selectivity for human urotensin 2 receptor over 5HT1B receptor
[32] = Oral bioavailability in rat at 0.97 mg/kg; format: ADME, organism-based; conditions: in vivo
[33] = Selectivity for human urotensin 2 receptor over muscarinic M3 receptor
[34] = Selectivity for human urotensin 2 receptor over 5HT7 receptor

Sequence of Cytochrome P450 2D6 (P10635 whole entry): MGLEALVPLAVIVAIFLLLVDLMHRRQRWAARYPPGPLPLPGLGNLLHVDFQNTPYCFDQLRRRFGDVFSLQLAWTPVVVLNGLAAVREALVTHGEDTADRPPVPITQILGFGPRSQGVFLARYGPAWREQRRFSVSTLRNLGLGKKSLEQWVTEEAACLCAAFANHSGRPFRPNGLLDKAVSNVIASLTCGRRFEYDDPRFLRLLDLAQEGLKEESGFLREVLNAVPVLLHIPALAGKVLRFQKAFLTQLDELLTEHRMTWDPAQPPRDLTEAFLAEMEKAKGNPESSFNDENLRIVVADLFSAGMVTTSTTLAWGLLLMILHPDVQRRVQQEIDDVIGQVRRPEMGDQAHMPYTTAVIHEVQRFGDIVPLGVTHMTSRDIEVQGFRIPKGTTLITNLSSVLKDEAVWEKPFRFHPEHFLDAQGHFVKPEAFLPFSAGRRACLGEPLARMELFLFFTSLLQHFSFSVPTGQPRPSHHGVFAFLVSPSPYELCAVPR
Sequence of Voltage-gated inwardly rectifying potassium channel KCNH2 (Q12809 whole entry): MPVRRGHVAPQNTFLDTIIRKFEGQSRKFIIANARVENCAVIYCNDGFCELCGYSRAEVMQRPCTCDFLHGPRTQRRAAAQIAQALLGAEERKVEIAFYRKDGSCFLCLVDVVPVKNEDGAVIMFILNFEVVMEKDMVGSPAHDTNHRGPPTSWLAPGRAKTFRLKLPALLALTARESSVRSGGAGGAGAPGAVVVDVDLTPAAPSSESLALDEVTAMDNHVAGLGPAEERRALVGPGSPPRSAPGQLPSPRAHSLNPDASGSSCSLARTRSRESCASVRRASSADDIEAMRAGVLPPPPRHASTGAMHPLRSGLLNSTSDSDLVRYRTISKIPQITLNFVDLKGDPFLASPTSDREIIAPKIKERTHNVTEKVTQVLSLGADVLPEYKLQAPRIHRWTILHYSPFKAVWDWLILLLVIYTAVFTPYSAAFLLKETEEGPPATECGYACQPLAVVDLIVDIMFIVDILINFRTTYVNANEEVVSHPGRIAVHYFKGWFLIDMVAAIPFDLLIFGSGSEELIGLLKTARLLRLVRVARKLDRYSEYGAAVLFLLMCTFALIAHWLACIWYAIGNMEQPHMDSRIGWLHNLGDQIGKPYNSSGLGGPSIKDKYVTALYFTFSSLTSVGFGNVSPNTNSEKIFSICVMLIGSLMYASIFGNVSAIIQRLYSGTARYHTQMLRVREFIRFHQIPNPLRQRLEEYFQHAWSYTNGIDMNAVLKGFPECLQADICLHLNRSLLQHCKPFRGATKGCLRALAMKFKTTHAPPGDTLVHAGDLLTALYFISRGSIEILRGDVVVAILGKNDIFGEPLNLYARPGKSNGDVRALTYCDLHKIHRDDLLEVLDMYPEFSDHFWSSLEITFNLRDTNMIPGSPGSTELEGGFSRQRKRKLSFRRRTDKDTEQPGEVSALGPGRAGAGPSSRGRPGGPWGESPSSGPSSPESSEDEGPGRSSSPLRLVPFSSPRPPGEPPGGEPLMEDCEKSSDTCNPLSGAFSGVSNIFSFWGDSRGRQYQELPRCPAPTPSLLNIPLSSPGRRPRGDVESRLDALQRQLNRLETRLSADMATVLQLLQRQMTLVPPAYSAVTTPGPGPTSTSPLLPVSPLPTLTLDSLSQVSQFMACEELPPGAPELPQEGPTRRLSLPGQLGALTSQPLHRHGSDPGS
Sequence of Cytochrome P450 3A4 (P08684 whole entry): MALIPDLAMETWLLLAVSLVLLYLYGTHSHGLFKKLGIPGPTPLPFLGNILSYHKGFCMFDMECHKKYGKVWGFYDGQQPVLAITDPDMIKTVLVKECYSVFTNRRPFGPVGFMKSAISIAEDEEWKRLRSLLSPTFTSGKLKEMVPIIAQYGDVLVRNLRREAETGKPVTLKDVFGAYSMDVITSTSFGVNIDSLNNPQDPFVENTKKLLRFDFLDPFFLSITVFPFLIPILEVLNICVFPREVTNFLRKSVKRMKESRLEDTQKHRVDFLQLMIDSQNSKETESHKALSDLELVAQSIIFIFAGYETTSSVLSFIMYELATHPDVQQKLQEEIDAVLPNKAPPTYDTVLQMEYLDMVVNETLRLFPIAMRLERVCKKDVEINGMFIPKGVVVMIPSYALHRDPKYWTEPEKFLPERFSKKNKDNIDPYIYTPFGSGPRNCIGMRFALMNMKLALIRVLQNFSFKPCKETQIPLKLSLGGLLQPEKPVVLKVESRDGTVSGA

Ki (Urotensin-2 receptor [1]): > 7940 nM
Compound: c1ccc(Nc2nccc3[nH]c4ccccc4c23)cc1

Ki (Urotensin II receptor): 200 nM
Ki (Urotensin-2 receptor [1]): 6.31 nM
Compound: CCCCCCNc1nccc2[nH]c3ccccc3c12

Ki (Urotensin-2 receptor [1]): 3980 nM
Compound: CCCCNc1nccc2c1c1ccccc1n2Cc1ccccc1

Ki (Urotensin-2 receptor [1]): 794 nM
Compound: CCCC(C)Nc1nccc2[nH]c3ccccc3c12 (centres undefined)

Ki (Urotensin-2 receptor [1]): 10 nM
Compound: c1ccc2c(c1)[nH]c1ccnc(NCC3CCCCC3)c12

Ki (Urotensin-2 receptor [1]): 100 nM
Compound: c1ccc2c(c1)[nH]c1nccc(NCC3CC3)c12

Ki (Urotensin-2 receptor [1]): > 7940 nM
Compound: c1ccc2c(c1)[nH]c1ccnc(NCCN3CCOCC3)c12

Ki (Urotensin II receptor): 1580 nM
Ki (Urotensin-2 receptor [1]): 12.6 nM
Compound: CC(C)CCNc1nccc2[nH]c3ccccc3c12

Ki (Urotensin-2 receptor [1]): 794 nM
Compound: c1ccc2c(c1)[nH]c1nccc(NCC3CCCCC3)c12

Ki (Urotensin-2 receptor [1]): 79.4 nM
Compound: CCCCNc1ccnc2[nH]c3ccccc3c12

Ki (Urotensin-2 receptor [1]): 25.1 nM
Compound: CCCNc1nccc2[nH]c3ccccc3c12

Kb (Urotensin-2 receptor [2]): 100 nM
Ki (Urotensin II receptor): 1260 nM
Ki (Urotensin-2 receptor [1]): 10 nM
Compound: CCC(C)CNc1nccc2[nH]c3ccccc3c12 (centres undefined)

Kb (Urotensin-2 receptor [2]): 158 nM
Ki (Urotensin II receptor): 3160 nM
Ki (Urotensin-2 receptor [1]): 25.1 nM
Compound: c1csc(CNc2nccc3[nH]c4ccccc4c23)c1

Ki (Urotensin-2 receptor [1]): 63.1 nM
Compound: CCCCNc1ccnc2[nH]c3ccc(C)cc3c12

Ki (Urotensin-2 receptor [1]): > 7940 nM
Compound: c1ccc2c(c1)[nH]c1ccnc(NC3CCCCC3)c12

Ki (Urotensin-2 receptor [1]): 2510 nM
Compound: c1ccc2c(c1)[nH]c1ccnc(NC3CC3)c12

Ki (Urotensin-2 receptor [1]): 50.1 nM
Compound: CCCCNc1ccnc2[nH]c3ccc(Cl)cc3c12

Ki (Urotensin-2 receptor [1]): 794 nM
Compound: CCCCN(CCCC)c1nccc2[nH]c3ccccc3c12

Ki (Urotensin-2 receptor [1]): > 7940 nM
Compound: CC(=O)NCCNc1nccc2[nH]c3ccccc3c12

Ki (Urotensin-2 receptor [1]): > 7940 nM
Compound: CN(C)CCNc1nccc2[nH]c3ccccc3c12

Ki (Urotensin-2 receptor [1]): 31.6 nM
Compound: CCCCNc1ccnc2[nH]c3c(OC)cccc3c12

Ki (Urotensin-2 receptor [1]): > 7940 nM
Compound: NC(=O)CCNc1nccc2[nH]c3ccccc3c12

Ki (Urotensin-2 receptor [1]): 63.1 nM
Compound: CCCCNc1nccc2c1c1ccccc1n2C(C)C

Selectivity ratio [3]: 100
Selectivity ratio [4]: 100
Selectivity ratio [5]: 100
IC50 (Cytochrome P450 2D6): 7.94 nM
Kb (Urotensin-2 receptor [2]): 100 nM
clearance [6]: 110 mL/min/kg
Selectivity ratio [7]: 100
Selectivity ratio [9]: 100
Selectivity ratio [10]: 100
Papp [11]: 47 ×10⁻⁶ cm/s
Selectivity ratio [12]: 100
Selectivity ratio (Homo sapiens): 400
Ki (Urotensin II receptor): 631 nM
Selectivity ratio [13]: 100
Selectivity ratio [14]: 100
Selectivity ratio [15]: 100
IC50 (Urotensin-2 receptor [16]): 501 nM
solubility [17]: 195 µM (≈ 46.7 µg/mL)
Selectivity ratio [18]: 100
Selectivity ratio [19]: 100
Selectivity ratio [20]: 100
Ki (Urotensin-2 receptor [1]): 3.98 nM
Selectivity ratio [21]: 100
Selectivity ratio [22]: 100
Selectivity ratio [23]: 100
Selectivity ratio [24]: 100
Selectivity ratio [25]: 100
Selectivity ratio [26]: 100
Selectivity ratio [27]: 100
half-life [28]: 1.3 h
Selectivity ratio [29]: 100
Selectivity ratio [30]: 100
IC50 (Cytochrome P450 3A4): 100 nM
Selectivity ratio [31]: 100
bioavailability [32]: 11%
Selectivity ratio [33]: 100
Selectivity ratio [34]: 100
Compound: CCCCNc1nccc2[nH]c3ccccc3c12
IC50 [8]: 1580 nM

Ki (Urotensin II receptor): 1000 nM
Ki (Urotensin-2 receptor [1]): 50.1 nM
Compound: CCCCNc1nccc2c1c1ccccc1n2C

Kb (Urotensin-2 receptor [2]): 126 nM
Ki (Urotensin II receptor): 2510 nM
Ki (Urotensin-2 receptor [1]): 6.31 nM
Compound: c1ccc2c(c1)[nH]c1ccnc(NCC3CC3)c12

Ki (Urotensin-2 receptor [1]): 20 nM
Compound: COCCNc1nccc2[nH]c3ccccc3c12

Ki (Urotensin-2 receptor [1]): 316 nM
Compound: COCCNc1ccnc2[nH]c3ccccc3c12

Ki (Urotensin-2 receptor [1]): > 7940 nM
Compound: COCCN(C)c1nccc2[nH]c3ccccc3c12

Ki (Urotensin-2 receptor [1]): 12.6 nM
Compound: CCOCCNc1nccc2[nH]c3ccccc3c12

Ki (Urotensin-2 receptor [1]): 79.4 nM
Compound: c1ccc2c(c1)[nH]c1ccnc(NCC3CCCO3)c12 (centres undefined)

Ki (Urotensin II receptor): 398 nM
Ki (Urotensin-2 receptor [1]): 3.98 nM
Compound: CCCCCNc1nccc2[nH]c3ccccc3c12

Kb (Urotensin-2 receptor [2]): 20 nM
Ki (Urotensin II receptor): 1000 nM
Ki (Urotensin-2 receptor [1]): 12.6 nM
Compound: c1ccc(CNc2nccc3[nH]c4ccccc4c23)cc1

Ki (Urotensin-2 receptor [1]): 1580 nM
Compound: CCNc1nccc2[nH]c3ccccc3c12

Ki (Urotensin-2 receptor [1]): 100 nM
Compound: c1ccc(CCNc2nccc3[nH]c4ccccc4c23)cc1
